Toxic doses and inconclusive results are not listed. No stated cut-off is given here; in the data, active means T/C of 150% or more; inactive means T/C below 125%.
System: L1210 leukemia ip in BDF1 mice, survival T/C
Test: NCI In Vivo Anticancer Drug Screen. Data for tumor model L1210 Leukemia (intraperitoneal) in B6D2F1 (BDF1) mice
Details: endpoint: mean survival time, higher = longer survival
Outline: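 In this screen, tumor-bearing mice given compound are compared to those given vehicle, and their survival values are reported as a treated-to-control quotient.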

[1] = dose: 25.0 mg/kg/injection, schedule: Q01DX009 (ip), vehicle: Klucel (hydroxypropylcellulose) (HPC)
[2] = dose: 100.0 mg/kg/injection, schedule: Q01DX009 (ip), vehicle: Klucel (hydroxypropylcellulose) (HPC)
[3] = dose: 100.0 mg/kg/injection, schedule: Q04DX003 (ip), vehicle: Klucel (hydroxypropylcellulose) (HPC)
[4] = dose: 200.0 mg/kg/injection, schedule: Q04DX003 (ip), vehicle: Klucel (hydroxypropylcellulose) (HPC)
[5] = dose: 400.0 mg/kg/injection, schedule: Q04DX003 (ip), vehicle: Klucel (hydroxypropylcellulose) (HPC)
[6] = dose: 100.0 mg/kg/injection, schedule: Q04DX003 (ip), vehicle: saline with Tween-80
[7] = dose: 200.0 mg/kg/injection, schedule: Q04DX003 (ip), vehicle: saline with Tween-80
[8] = dose: 400.0 mg/kg/injection, schedule: Q04DX003 (ip), vehicle: saline with Tween-80
[9] = dose: 25.0 mg/kg/injection, schedule: Q04DX003 (ip), vehicle: saline with Tween-80
[10] = dose: 100.0 mg/kg/injection, schedule: Q01DX001 (ip), vehicle: saline with Tween-80
[11] = dose: 100.0 mg/kg/injection, schedule: Q04DX002 (ip), vehicle: saline with Tween-80
[12] = dose: 400.0 mg/kg/injection, schedule: Q04DX002 (ip), vehicle: saline with Tween-80
[13] = dose: 100.0 mg/kg/injection, schedule: Q01DX001 (ip), vehicle: saline
[14] = dose: 200.0 mg/kg/injection, schedule: Q01DX001 (ip), vehicle: saline
[15] = dose: 400.0 mg/kg/injection, schedule: Q01DX001 (ip), vehicle: saline
[16] = dose: 100.0 mg/kg/injection, schedule: Q01DX001 (ip), vehicle: carboxymethylcellulose (CMC)
[17] = dose: 200.0 mg/kg/injection, schedule: Q01DX001 (ip), vehicle: carboxymethylcellulose (CMC)
[18] = dose: 400.0 mg/kg/injection, schedule: Q01DX001 (ip), vehicle: carboxymethylcellulose (CMC)
[19] = dose: 200.0 mg/kg/injection, schedule: Q04DX002 (ip), vehicle: saline with Tween-80
[20] = dose: 50.0 mg/kg/injection, schedule: Q01DX009 (ip), vehicle: saline
[21] = dose: 100.0 mg/kg/injection, schedule: Q01DX009 (ip), vehicle: saline
[22] = dose: 200.0 mg/kg/injection, schedule: Q01DX009 (ip), vehicle: saline

Measured: T/C

S=C1NCCCS1
inactive: dose: 12.5 mg/kg/injection, schedule: Q01DX009 (ip), vehicle: Klucel (hydroxypropylcellulose) (HPC) 93 % of control | [1] 104 % of control | dose: 50.0 mg/kg/injection, schedule: Q01DX009 (ip), vehicle: Klucel (hydroxypropylcellulose) (HPC) 98 % of control | [2] 101 % of control | [3] 98 % of control | [4] 95 % of control | [5] 104 % of control

CCCCN(CCCC)C(=O)NS(=O)(=O)c1ccc(N)cc1
inactive: [6] 95 % of control | [7] 104 % of control | [8] 101 % of control

CC(O)C[As](=O)(O)c1ccc(Cl)cc1 (stereo not given)
inactive: [9] 94 % of control

NC1CCC(OC(=O)C23CC4CC(CC(C4)C2)C3)CC1 (stereo not given)
inactive: [10] 94 % of control

O=C(NC1CCOC1=O)OCc1ccccc1 (stereo not given)
inactive: dose: 100.0 mg/kg/injection, schedule: Q01DX009 (ip), vehicle: saline with Tween-80 94 % of control | [6] 95 % of control | dose: 200.0 mg/kg/injection, schedule: Q01DX009 (ip), vehicle: saline with Tween-80 95 % of control | [7] 91 % of control | dose: 400.0 mg/kg/injection, schedule: Q01DX009 (ip), vehicle: saline with Tween-80 94 % of control | [8] 95 % of control

c1ccc(-c2oc(-c3ccccc3)c3c(-c4ccccc4)cccc23)cc1
inactive: [11] 105 % of control | [12] 98 % of control

CCOc1ccccc1/C=N\NC(=O)c1cccc2ccccc12
inactive: [13] 95 % of control | [14] 95 % of control | [15] 90 % of control

CC(=O)Nc1ccc(C(=O)O)cc1O
inactive: dose: 100.0 mg/kg/injection, schedule: Q04DX003 (ip), vehicle: saline 92 % of control | dose: 200.0 mg/kg/injection, schedule: Q04DX003 (ip), vehicle: saline 92 % of control | dose: 400.0 mg/kg/injection, schedule: Q04DX003 (ip), vehicle: saline 95 % of control

COc1cc(C(C)=O)cc(OC)c1OC
inactive: [6] 102 % of control | [7] 96 % of control | [8] 98 % of control

COc1ccc(O)c(/C=C\C=O)c1
inactive: [16] 100 % of control | [17] 100 % of control | [18] 106 % of control

CC1CC(C)NC(=O)N1 (stereo not given)
inactive: dose: 50.0 mg/kg/injection, schedule: Q04DX002 (ip), vehicle: saline with Tween-80 98 % of control | [11] 94 % of control | [19] 91 % of control | [12] 98 % of control

COC(=O)C(Cc1[nH]cnc1N=Nc1ccc(Br)cc1)NC(C)=O (stereo not given)
inactive: [10] 107 % of control | dose: 200.0 mg/kg/injection, schedule: Q01DX001 (ip), vehicle: saline with Tween-80 96 % of control | dose: 400.0 mg/kg/injection, schedule: Q01DX001 (ip), vehicle: saline with Tween-80 96 % of control

Cc1cc(C(C)(C)c2ccc(O)c(C)c2)ccc1O
inactive: [20] 97 % of control | [21] 97 % of control | [6] 100 % of control | [22] 94 % of control | [7] 102 % of control | [8] 107 % of control

COc1ccccc1NC(=O)Nc1ccccc1OC
inactive: [2] 98 % of control | [3] 97 % of control | dose: 200.0 mg/kg/injection, schedule: Q01DX009 (ip), vehicle: Klucel (hydroxypropylcellulose) (HPC) 104 % of control | [4] 97 % of control | dose: 400.0 mg/kg/injection, schedule: Q01DX009 (ip), vehicle: Klucel (hydroxypropylcellulose) (HPC) 103 % of control | [5] 94 % of control

COC(=O)c1cc(N)ccc1Br
inactive: dose: 100.0 mg/kg/injection, schedule: Q04DX003 (sc), vehicle: olive oil, sesame oil, peanut oil 93 % of control | dose: 200.0 mg/kg/injection, schedule: Q04DX003 (sc), vehicle: olive oil, sesame oil, peanut oil 111 % of control | dose: 400.0 mg/kg/injection, schedule: Q04DX003 (sc), vehicle: olive oil, sesame oil, peanut oil 95 % of control

Cc1cccc(C)c1C1=CCCCC1
inactive: dose: 50.0 mg/kg/injection, schedule: Q01DX001 (ip), vehicle: saline 108 % of control | [13] 104 % of control | [14] 104 % of control | [15] 110 % of control

O=C(O)c1ccccc1Br.[Ni]
inactive: dose: 3.0 mg/kg/injection, schedule: Q01DX009 (ip), vehicle: Klucel (hydroxypropylcellulose) (HPC) 91 % of control | dose: 6.0 mg/kg/injection, schedule: Q01DX009 (ip), vehicle: Klucel (hydroxypropylcellulose) (HPC) 94 % of control | dose: 12.0 mg/kg/injection, schedule: Q01DX009 (ip), vehicle: Klucel (hydroxypropylcellulose) (HPC) 94 % of control | dose: 12.5 mg/kg/injection, schedule: Q01DX001 (ip), vehicle: Klucel (hydroxypropylcellulose) (HPC) 97 % of control | dose: 25.0 mg/kg/injection, schedule: Q01DX001 (ip), vehicle: Klucel (hydroxypropylcellulose) (HPC) 93 % of control | [1] 88 % of control | dose: 50.0 mg/kg/injection, schedule: Q01DX001 (ip), vehicle: Klucel (hydroxypropylcellulose) (HPC) 103 % of control

O=C(O)CCCc1ccccc1
inactive: dose: 50.0 mg/kg/injection, schedule: Q01DX001 (ip), vehicle: carboxymethylcellulose (CMC) 94 % of control | [16] 108 % of control | [11] 98 % of control | [17] 96 % of control | [19] 91 % of control | [18] 107 % of control | [12] 109 % of control

CC(C)(C)CC(C)(C)NCc1ccccc1
inactive: [9] 103 % of control | dose: 50.0 mg/kg/injection, schedule: Q04DX003 (ip), vehicle: saline with Tween-80 92 % of control | [6] 103 % of control

CCOC(=O)/C(C#N)=C\c1ccc(OCC)c(OCC)c1
inactive: dose: 100.0 mg/kg/injection, schedule: Q01DX Z (ip), vehicle: methylcellulose (MC) 101 % of control | dose: 200.0 mg/kg/injection, schedule: Q01DX Z (ip), vehicle: methylcellulose (MC) 100 % of control

CC1(C)OC2C3COC(O3)C(O)C2O1 (stereo not given)
inactive: [11] 99 % of control | [19] 99 % of control | [12] 96 % of control

CC(C)(O)C#CC(C)(C)O
inactive: [21] 115 % of control | [22] 110 % of control | dose: 400.0 mg/kg/injection, schedule: Q01DX009 (ip), vehicle: saline 110 % of control

C[P+]1(C)CC2OC23CCCCC31 (stereo not given)
inactive: dose: 12.5 mg/kg/injection, schedule: Q01DX009 (ip), vehicle: saline 98 % of control | dose: 25.0 mg/kg/injection, schedule: Q01DX009 (ip), vehicle: saline 93 % of control | [20] 94 % of control | [21] 96 % of control

CC(=O)Nc1nnc(NC(C)=O)s1
inactive: dose: 9.38 mg/kg/injection, schedule: Q01DX001 (ip), vehicle: other 102 % of control | dose: 18.75 mg/kg/injection, schedule: Q01DX001 (ip), vehicle: other 107 % of control

C[CH2][Pb]([CH2]C)([CH2]C)[O]C(=O)C=C1CCCC1
inactive: dose: 2.5 mg/kg/injection, schedule: Q01DX009 (ip), vehicle: saline with Tween-80 101 % of control

Reference: PubChem BioAssay AID248 (DTP/NCI, 2004)
